Experimental data as given in patent US20250304537A1 (Repare Therapeutics Inc., priority 2022, published 2025).
Read-outs that look alike come from different tables or passages of the source.

Test system: PKMYT1 (CDK1 pThr14) in FUOV1 cells
Assay: PKMYT1 cell-based activity assay, CDK1 pThr14 AlphaLISA in FUOV1 cells
Conditions: read-out: FUOV-1 CDK1 pThr14 IC50
Procedure, shortened: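 IC50 was derived from AlphaLISA signal (excitation 680 nm, emission 615 nm) for phospho-Thr14 CDK1 in lysates. The detection antibodies were rabbit anti-pThr14 and mouse anti-total CDK1, each at 5 nM. FUOV1 ovarian cells were exposed to compound for 2 hours before lysis.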

IC50 (2 h, 2 h compound incubation) [nM]	other results	SMILES
94	–	Cc1ccc2[nH]ncc2c1-c1cc2c(oc3ccc(N[C@H]4CCOC4)nc32)c(C(N)=O)c1N [Compound 668]
33	–	Cc1cccnc1Nc1ncc(F)cc1-c1nc(C(N)=O)c(N)c(-c2c(C)ccc3[nH]ncc23)n1 [Compound 672]
122	–	[2H]C([2H])([2H])c1ccc2[nH]ncc2c1-c1nc(-c2cc(F)ccc2Nc2ncc(F)cn2)nc(C(N)=O)c1N [Compound 684]
34	–	Cc1cccnc1Nc1nc(C#N)ccc1-c1nc(C(N)=O)c(N)c(-c2c(C)ccc3[nH]ncc23)n1 [Compound 737]
111	–	Cc1ccc2[nH]ncc2c1-c1nc(-c2ccc(F)cc2Nc2ccccc2F)nc(C(N)=O)c1N [Compound 589]
–	IC50 (2 h incubation): 179 nM	Cc1ccc(O)c(C)c1-c1nc(-c2ccnnc2)cc(C(N)=O)c1N [Compound 77]
603	–	Cc1ccc2[nH]ncc2c1-c1nc(-c2cccnc2NC2CCOC(C)(C)C2)nc(C(N)=O)c1N (centres unmarked) [Compound 592]
49	–	Cc1ccc2[nH]ncc2c1-c1nc(-c2cccnc2NC2CCSCC2)nc(C(N)=O)c1N [Compound 597]
–	IC50 (2 h, 2 h incubation): 404 nM	Cc1ccc2[nH]ncc2c1-c1cc(-c2ccnc(OCc3ccco3)n2)nc(C(N)=O)c1N [Compound 213]
359	–	Cc1ccc2[nH]ncc2c1-c1nc(-c2ccc(F)cc2Nc2cccc(F)c2)nc(C(N)=O)c1N [Compound 663]
–	IC50 (2 h, 2 hours with compound): 51 nM	Cc1ccc2[nH]ncc2c1-c1nc(-c2ccc(F)cc2N[C@H]2C[C@H](O)C2)nc(C(N)=O)c1N [Compound 906]
3	–	Cc1ccc(-c2nc(C(N)=O)c(N)c(-c3c(C)ccc4[nH]ncc34)n2)c(Nc2ncccc2C)n1 [Compound 687]
–	IC50 (2 h, 2 h incubation): 92 nM	COC(COc1nccc(-c2cc(-c3c(C)ccc4[nH]ncc34)c(N)c(C(N)=O)n2)n1)c1ccccc1 (centres unmarked) [Compound 238]
–	IC50 (2 h, 2 hours with compound): 8 nM	Cc1ccc2[nH]ncc2c1-c1nc(-c2ccc(Cl)nc2Nc2ncccc2C#N)nc(C(N)=O)c1N [Compound 935]
–	IC50 (2 h, 2 hours with compound): 212 nM	NC(=O)c1nc(-c2cccnc2NC2CC2)nc(-c2c(Cl)cc(F)c3[nH]ncc23)c1N [Compound 967]
534	–	Cc1ccc2[nH]ncc2c1-c1nc(-c2cc(F)cnc2NC2CC(C)(C)C2)nc(C(N)=O)c1N [Compound 732]
163	–	Cc1ccc2[nH]ncc2c1-c1nc(-c2cc(F)ccc2Nc2ncc(F)cn2)nc(C(N)=O)c1N [Compound 492]
1610	–	Cc1ccc2[nH]ncc2c1-c1nc(-c2ccc(F)cc2Nc2cc(C3(C#N)CC3)ccn2)nc(C(N)=O)c1N [Compound 698]
17	–	Cc1cccnc1Nc1cc(C#N)ccc1-c1nc(C(N)=O)c(N)c(-c2c(C)ccc3[nH]ncc23)n1 [Compound 754]
73	–	Cc1cnc(C)c(Nc2cc(C#N)ccc2-c2nc(C(N)=O)c(N)c(-c3c(C)ccc4[nH]ncc34)n2)n1 [Compound 750]
245	–	Cc1ccc2[nH]ncc2c1-c1nc(-c2cccnc2NC2CC(=O)N(C)C2)nc(C(N)=O)c1N (centres unmarked) [Compound 552]
–	IC50 (2 h, 2 hours with compound): 14 nM	CCc1ccc(-c2nc(C(N)=O)c(N)c(-c3c(C)ccc4[nH]ncc34)n2)c(Nc2ncccc2F)n1 [Compound 975]

IC50 (2 h, 2 h compound incubation) [nM]	other results	SMILES
121	–	Cc1ccc2[nH]ncc2c1-c1nc(-c2ccc(F)cc2Nc2ncnc(C)c2C#N)nc(C(N)=O)c1N [Compound 639]
–	IC50 (2 h compound incubation): 1540 nM	Cc1ccc2[nH]ncc2c1-c1nc(-c2cccnc2Nc2cccnc2)nc(C(N)=O)c1N [Compound 595]
130	–	Cc1ccc2[nH]ncc2c1-c1nc(-c2cccnc2NC[C@@H]2CCCOC2)nc(C(N)=O)c1N [Compound 651]
31	–	Cc1ccc2[nH]ncc2c1-c1nc(-c2cc(F)cnc2NC2CC(F)(F)C2)nc(C(N)=O)c1N [Compound 678]
1330	–	Cc1ccc2[nH]ncc2c1-c1cc2c(oc3ccc(O[C@H]4CCOC4)nc32)c(C(N)=O)c1N [Compound 574]
–	IC50 (2 h, 2 hours with compound): 23 nM	Cc1ccc2[nH]ncc2c1-c1nc(-c2ccc(F)nc2Nc2ncccc2C(F)F)nc(C(N)=O)c1N [Compound 945]
–	IC50 (2 h, 2 hours with compound): 78 nM	Cc1c(F)cc2[nH]ncc2c1-c1nc(-c2cccnc2NC2CC2)nc(C(N)=O)c1N [Compound 848]
416	–	Cc1ccc2[nH]ncc2c1-c1cc2c(oc3ccc(F)nc32)c(C(N)=O)c1N [Compound 557]
3	–	Cc1ccc2[nH]ncc2c1-c1nc(-c2ccc(F)cc2Nc2ccncc2)nc(C(N)=O)c1N [Compound 533]
195	–	Cc1ccc2[nH]ncc2c1-c1nc(-c2cc(F)cnc2NCC2(O)CC2)nc(C(N)=O)c1N [Compound 692]
–	IC50 (2 h, 2 hours with compound): 35 nM	Cc1ccc2[nH]ncc2c1-c1nc(-c2cnsc2NC2CCOCC2)nc(C(N)=O)c1N [Compound 856]
41	–	Cc1ccc2[nH]ncc2c1-c1nc(-c2ccc(F)cc2Nc2cncc(F)c2)nc(C(N)=O)c1N [Compound 665]
19	–	CCc1cccnc1Nc1ncccc1-c1nc(C(N)=O)c(N)c(-c2c(C)ccc3[nH]ncc23)n1 [Compound 730]
9	–	Cc1ccnnc1Nc1cc(F)ccc1-c1nc(C(N)=O)c(N)c(-c2c(C)ccc3[nH]ncc23)n1 [Compound 540]
269	–	Cc1cnc(Nc2cc(F)ccc2-c2nc(C(N)=O)c(N)c(-c3c(C)ccc4[nH]ncc34)n2)nc1 [Compound 523]
251	–	Cc1ccc2[nH]ncc2c1-c1nc(-c2cc(F)c(F)cc2NC2CCS(=O)(=O)CC2)nc(C(N)=O)c1N [Compound 529]
40	–	Cc1ccc2[nH]ncc2c1-c1nc(-c2cc(F)cnc2N[C@H]2C[C@](C)(O)C2)nc(C(N)=O)c1N [Compound 748]
48	–	Cc1ccc2[nH]ncc2c1-c1nc(-c2cc(F)cnc2N[C@H]2C[C@@](C)(O)C2)nc(C(N)=O)c1N [Compound 733, 5-amino-2-(5-fluoro-2-(((1s,3s)-3-hydroxy-3-methylcyclobutyl)amino)pyridin-3-yl)-6-(5-methyl-1H-indazol-4-yl)pyrimidine-4-carboxamide]
–	IC50 (2 h, 2 hours with compound): 2 nM	[2H]C([2H])([2H])c1ccc2[nH]ncc2c1-c1nc(-c2cccnc2Nc2nc(C)ccc2F)nc(C(N)=O)c1N [Compound 824]
> 10000	–	Cc1ccc2[nH]ncc2c1-c1nc(-c2cnncc2NCC(F)(F)F)nc(C(N)=O)c1N [Compound 669]
–	IC50 (2 h, 2 h incubation): 39 nM	Cc1ccc2[nH]ncc2c1-c1cc(-c2ccnc(OCc3nccn3C)n2)nc(C(N)=O)c1N [Compound 301]
–	IC50 (2 h, 2 hours with compound): 164 nM	Cn1cc(-c2nc(C(N)=O)c(N)c(-c3c(Cl)ccc4[nH]ncc34)n2)c(NC2CCOCC2)n1 [Compound 915]

IC50 (2 h, 2 h compound incubation) [nM]	other results	SMILES
–	IC50 (2 h, 2 hours with compound): 51 nM	[2H]C([2H])([2H])c1ccc2[nH]ncc2c1-c1nc(-c2ccc(Cl)nc2Nc2ncccn2)nc(C(N)=O)c1N [Compound 946]
–	IC50 (2 h, 2 hours with compound): > 10000 nM	Cc1ccc2[nH]ncc2c1-c1nc(-c2cc(F)cnc2N[C@H]2CCOC[C@@H]2O)nc(C(N)=O)c1N [Compound 801]
527	–	COc1cccc(Nc2ncccc2-c2nc(C(N)=O)c(N)c(-c3c(C)ccc4[nH]ncc34)n2)c1 [Compound 656]
–	IC50 (2 h, 2 hours with compound): 37 nM	Cc1ccc2[nH]ncc2c1-c1nc(-c2ccnnc2Nc2ncccc2F)nc(C(N)=O)c1N [Compound 886, 5-amino-2-(3-((3-fluoropyridin-2-yl)amino)pyridazin-4-yl)-6-(5-methyl-1H-indazol-4-yl)pyrimidine-4-carboxamide]
283	–	Cc1ccc2[nH]ncc2c1-c1nc(-c2cc(F)ccc2NS(=O)(=O)C2CCC2)nc(C(N)=O)c1N [Compound 571]
423	–	Cc1ccc2[nH]ncc2c1-c1nc(-c2ccc(F)cc2Nc2cncnc2C(=N)N)nc(C(N)=O)c1N [Compound 694]
146	–	Cc1ccc2[nH]ncc2c1-c1nc(-c2cc(F)c(F)cc2NCC(N)CO)nc(C(N)=O)c1N (centres unmarked) [Compound 501]
17	–	Cc1ccc2[nH]ncc2c1-c1nc(-c2cc(F)cnc2N[C@H]2C[C@@H](O)C2)nc(C(N)=O)c1N [Compound 704]
66	–	Cc1ccc2[nH]ncc2c1-c1nc(-c2cc(F)cnc2NC2COC2)nc(C(N)=O)c1N [Compound 712]
140	–	Cc1ccc2[nH]ncc2c1-c1nc(-c2ccc(C#N)nc2Nc2ncccn2)nc(C(N)=O)c1N [Compound 745]
–	IC50 (2 h, 2 hours with compound): 36 nM	Cc1ccc2[nH]ncc2c1-c1nc(-c2cc(F)cnc2N[C@@H]2CCOCC2(F)F)nc(C(N)=O)c1N [Compound 883]
25	–	Cc1ccc2[nH]ncc2c1-c1nc(-c2ccc(C#N)cc2NC2CCOCC2)nc(C(N)=O)c1N [Compound 782]
–	IC50 (2 h, 2 hours with compound): 49 nM	Cc1ccc2[nH]ncc2c1-c1nc(-c2ccccc2NC2CC(O)(C(F)(F)F)C2)nc(C(N)=O)c1N (centres unmarked) [Compound 882]
1340	–	Cc1ccc2[nH]ncc2c1-c1nc(-c2cc(F)ccc2NS(=O)(=O)C2CC(F)(F)C2)nc(C(N)=O)c1N [Compound 514]
–	IC50 (2 h, 2 hours with compound): 5 nM	Cc1ccc(F)c(Nc2ncccc2-c2nc(C(N)=O)c(N)c(-c3c(Cl)ccc4[nH]ncc34)n2)n1 [Compound 798]
–	IC50 (2 h, 2 hours with compound): 51 nM	Cc1ccc2[nH]ncc2c1-c1nc(-c2cc(Cl)ncc2Nc2ncccn2)nc(C(N)=O)c1N [Compound 955, 5-amino-2-(2-chloro-5-(pyrimidin-2-ylamino)pyridin-4-yl)-6-(5-methyl-1H-indazol-4-yl)pyrimidine-4-carboxamide]
20	–	Cc1ccc2[nH]ncc2c1-c1nc(-c2ccc(F)cc2Nc2nnccc2C#N)nc(C(N)=O)c1N [Compound 539]
41	–	Cc1ccc(-c2nc(C(N)=O)c(N)c(-c3c(C)ccc4[nH]ncc34)n2)c(Nc2nnccc2C)n1 [Compound 628]
–	IC50 (2 h compound incubation): 24 nM	Cc1ccc2[nH]ncc2c1-c1cc2c(oc3ccc(NC4CCOCC4)nc32)c(C(N)=O)c1N (atropisomer, axis not shown) [Compound 762]
198	–	Cc1ccc2[nH]ncc2c1-c1nc(-c2ccncc2NC(=O)OC(C)(C)C)nc(C(N)=O)c1N [Compound 495]
56	–	Cc1ccc2[nH]ncc2c1-c1nc(-c2ccc(F)cc2Nc2cncc(C#N)n2)nc(C(N)=O)c1N [Compound 706]
